This series has as its system retinoblastoma (Rb) protein. The experiment in a line: Western blot and pRB quantification in transfected HeLa cells. The class given is cell-based, human. As for the experimental part: Phenotypic analysis of RGNs in HeLa was performed using the Fugene6 transfection reagent as per the manufacturer's protocol. Cells were plated at 2.5×10^5 cells per well in 6-well plates and transfected with a 3 to 1 ratio of RGN expression vector to pLCE (a GFP-expressing plasmid included to determine transfection efficiency). SiHa cells were transfected with HPV-16-specific RGN expression vectors using Lipofectamine3000 (Clontech) using the manufacturer's protocol. Cells were then harvested and lysed in SDS/β-mercaptoethanol protein lysis buffer 48 hours post transfection. Lysates were subjected to electrophoresis on 4-20% SDS-polyacrylamide gels (Bio-Rad) and transferred to nitrocellulose membranes. The membranes were then probed in 5% milk-PBS-T (PBS, 0.1% Tween 20, 0.5% bovine serum albumin) with the following antibodies: anti-Flag (Sigma F1804), a rabbit Rev polyclonal antiserum (Malim et al., 1989), anti-β-actin (Santa Cruz S.C.-47778), anti-p53 (Santa Cruz S.C.-126), anti-p21 (Santa Cruz S.C.-397), and anti-Rb (BD Pharmigen 554136). The membranes were washed in PBS-T, incubated with a species-specific secondary antibody, and then washed again in PBS-T. The membranes were incubated with Western Bright Sirius Western blot detection kit (Advansta) and signals captured using GeneSnap and quantified using GeneTools (Syngene). […]
On the technique in general: A western blot detects proteins with antibodies after separation by electrophoresis.

Regarding “E7 sgRNA1: Spy Cas9 sgRNA for HPV-18 E7, GGAGCAATTAAGCGACTCAG; SEQ ID NO: 10 (expressed or natural sequence)”, the “increase in Rb expression normalized to β-actin internal control” value (Spy Cas9, 48 h post-transfection) worked out at 1.4±0.03 fold. The “increase in Rb expression over the control, decrease of Cas9 expression taken into account” value (Spy Cas9, p=0.011) is listed as 5.54±1.42 fold.
